Our source for the TGI values is PubChem BioAssay (NCI).

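Protocol summary: plate cells (96-well), add compound at 5 concentrations, incubate 48 h, interpolate endpoints linearly. Definition used: TGI = concentration required for complete inhibition of growth.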

Test systems include SF-268 CNS; BT-549 breast; NCI-H23 lung; 786-0 renal; K-562 leukemia; A549 NSCLC; OVCAR-4 ovarian; ACHN renal; A498 renal; LOX IMVI melanoma; NCI-H460 lung; CCRF-CEM leukemia; HCT-15 colon; OVCAR-3 ovarian; HOP-62 NSCLC; NCI-H226 lung; MDA-N; RPMI-8226 leukemia; HL-60(TB) leukemia; SNB-75 CNS.
What all share (assay): NCI tumour cell line growth inhibition, 48 h

In the case of `Cc1[nH]c(C)c(CN(C)C)c1CN(C)C`, the TGI in the assay with SF-268 CNS, in the assay with BT-549 breast, in the assay with NCI-H23 lung, in the assay with 786-0 renal, with K-562 leukemia and in the assay with A549 NSCLC was above 100 µM each time. The TGI with OVCAR-4 ovarian, in the assay with ACHN renal, with A498 renal, in the assay with LOX IMVI melanoma, with NCI-H460 lung and in the assay on CCRF-CEM leukemia was above 100 µM each time. The TGI in the assay with HCT-15 colon, with OVCAR-3 ovarian, with HOP-62 NSCLC, with NCI-H226 lung, in the assay on MDA-N and in the assay with RPMI-8226 leukemia was above 100 µM throughout.
In the case of `CCOC(=O)C1=C(C)N(c2ccc(Cl)cc2)C2(O)C=CC(=O)C3=C(O)c4ccccc4C(=O)C312` (configuration not stated), the TGI in the assay with SF-268 CNS was found to be 6.86 µM; with BT-549 breast it was 28 µM; in the assay with NCI-H23 lung, 25.4 µM; in the assay on 786-0 renal, 4.07 µM; in the assay on K-562 leukemia, 18.1 µM; with A549 NSCLC it was 21.8 µM. In addition, the TGI was found to be 8.33 µM in the assay with OVCAR-4 ovarian; 16.4 µM in the assay with ACHN renal; 30 µM in the assay on A498 renal; 14 µM in the assay with LOX IMVI melanoma; 18.2 µM in the assay on NCI-H460 lung; 6.69 µM in the assay with CCRF-CEM leukemia. Besides, the TGI in the assay with HCT-15 colon came to 14 µM; in the assay on OVCAR-3 ovarian it was 5.84 µM; in the assay on HOP-62 NSCLC, 18.9 µM; in the assay with MDA-N, 18.2 µM; with HL-60(TB) leukemia, 5.77 µM; in the assay on RPMI-8226 leukemia, 4.42 µM.
`CCc1n[nH]c(=O)n1CC`: the TGI with SF-268 CNS, in the assay on BT-549 breast, in the assay with NCI-H23 lung, in the assay with 786-0 renal, in the assay with K-562 leukemia and with A549 NSCLC was above 100 µM each time. For the same compound, the TGI with OVCAR-4 ovarian, in the assay with ACHN renal, with A498 renal, in the assay on LOX IMVI melanoma, with NCI-H460 lung and in the assay with CCRF-CEM leukemia was above 100 µM throughout. In addition, the TGI with HCT-15 colon, with OVCAR-3 ovarian, in the assay on HOP-62 NSCLC, with NCI-H226 lung, with MDA-N and with HL-60(TB) leukemia was above 100 µM each time. In the assay with RPMI-8226 leukemia, this compound had a TGI above 100 µM.
Take `CCN(CC)CCNc1ccc2ncn3c4ccc(OC)cc4c(=O)c1c23`: the TGI was determined as 14.4 µM with SF-268 CNS; 33 µM in the assay on BT-549 breast; 18.1 µM with NCI-H23 lung; 15.5 µM in the assay with 786-0 renal; 22.7 µM in the assay on K-562 leukemia; 9.71 µM in the assay with A549 NSCLC. For the same compound, the TGI in the assay with OVCAR-4 ovarian stood at 8.89 µM; in the assay with ACHN renal, 19 µM; in the assay with A498 renal, 21.5 µM; with LOX IMVI melanoma, 4.68 µM; in the assay with NCI-H460 lung, 5.52 µM; with CCRF-CEM leukemia, 19 µM. The TGI was determined as 20.8 µM in the assay with SNB-75 CNS; 15.1 µM in the assay with HCT-15 colon; 24.2 µM in the assay on OVCAR-3 ovarian; 20.3 µM in the assay on HOP-62 NSCLC; 13.7 µM in the assay with NCI-H226 lung; 19.6 µM in the assay on MDA-N. This compound had a TGI in the assay with HL-60(TB) leukemia of 18.7 µM.
For the compound `CCCCC(=O)/C=c1/cc(C)[nH]c2cccc3cnn1c32`, the TGI with SF-268 CNS, in the assay on BT-549 breast, in the assay on NCI-H23 lung, with 786-0 renal, in the assay on A549 NSCLC and with OVCAR-4 ovarian was above 100 µM each time. Also, the TGI with ACHN renal, in the assay with A498 renal, in the assay on LOX IMVI melanoma, in the assay with CCRF-CEM leukemia, in the assay on HCT-15 colon and in the assay with OVCAR-3 ovarian was above 100 µM each time. Besides, the TGI in the assay with HOP-62 NSCLC, with NCI-H226 lung, with MDA-N, in the assay with HL-60(TB) leukemia and in the assay with RPMI-8226 leukemia was above 100 µM throughout.
Regarding `O=Cc1ccc2ccocc1-2`, the TGI with SF-268 CNS, in the assay with BT-549 breast, in the assay on NCI-H23 lung, in the assay on 786-0 renal, in the assay with K-562 leukemia and in the assay on A549 NSCLC was above 100 µM throughout. The TGI with OVCAR-4 ovarian, in the assay on ACHN renal, with A498 renal, with LOX IMVI melanoma, in the assay on NCI-H460 lung and in the assay with CCRF-CEM leukemia was above 100 µM in each case. The TGI in the assay on HCT-15 colon, in the assay with OVCAR-3 ovarian, in the assay on HOP-62 NSCLC, in the assay with NCI-H226 lung, with MDA-N and in the assay with HL-60(TB) leukemia was above 100 µM each time. In addition, the TGI in the assay on RPMI-8226 leukemia is above 100 µM.
For the compound `O=C(c1cscc1CCc1ccccc1)c1cscc1CCc1ccccc1`, the TGI in the assay on SF-268 CNS, in the assay on BT-549 breast, with NCI-H23 lung, in the assay with 786-0 renal, in the assay on K-562 leukemia and in the assay on A549 NSCLC was above 100 µM throughout. Moreover, the TGI in the assay with OVCAR-4 ovarian, with ACHN renal, in the assay on A498 renal, in the assay on LOX IMVI melanoma, with NCI-H460 lung and in the assay on CCRF-CEM leukemia was above 100 µM each time. In addition, the TGI in the assay on SNB-75 CNS, with HCT-15 colon, in the assay with HOP-62 NSCLC, with NCI-H226 lung, with MDA-N and in the assay on RPMI-8226 leukemia was above 100 µM each time.
In the case of `COC(=O)/C=C/CCC#Cc1ccccc1C#CCC/C=C/C(=O)OC`, the TGI in the assay on SF-268 CNS is above 100 µM; in the assay on BT-549 breast, above 100 µM; with NCI-H23 lung it was 42.9 µM; in the assay on 786-0 renal it was 53.2 µM; in the assay on K-562 leukemia it was 4.86 µM; with A549 NSCLC, above 100 µM. In addition, the TGI in the assay with OVCAR-4 ovarian is above 100 µM; in the assay with ACHN renal, above 100 µM; with A498 renal, above 100 µM; in the assay with LOX IMVI melanoma it was 64 µM; in the assay with NCI-H460 lung it was above 100 µM; in the assay on CCRF-CEM leukemia, 24.3 µM. Besides, the TGI with SNB-75 CNS is 19 µM; in the assay on HCT-15 colon, above 100 µM; in the assay with OVCAR-3 ovarian, 28.2 µM; in the assay with HOP-62 NSCLC it was above 100 µM; in the assay with NCI-H226 lung, above 100 µM; with MDA-N it was above 100 µM. This compound also came in with a TGI in the assay on HL-60(TB) leukemia of 9.63 µM.
As for `Cc1cc(C)c(NS(=O)c2cccc(C(F)(F)F)c2)c(C)c1` (configuration not stated), the TGI in the assay with SF-268 CNS, in the assay with BT-549 breast, in the assay with NCI-H23 lung, with 786-0 renal, in the assay with K-562 leukemia and in the assay with A549 NSCLC was above 100 µM each time. The TGI in the assay on ACHN renal, with A498 renal, with NCI-H460 lung, in the assay with CCRF-CEM leukemia, in the assay with HCT-15 colon and in the assay on OVCAR-3 ovarian was above 100 µM each time. In addition, the TGI in the assay on HOP-62 NSCLC, with NCI-H226 lung, in the assay on MDA-N, in the assay with HL-60(TB) leukemia and in the assay on RPMI-8226 leukemia was above 100 µM each time.
Take `Cc1cc(N2CCOCC2)nc2ccc(Cc3ccc4nc(N5CCOCC5)cc(C)c4c3)cc12`: the TGI with SF-268 CNS, with BT-549 breast, in the assay with NCI-H23 lung, with 786-0 renal, with K-562 leukemia and in the assay with A549 NSCLC was above 100 µM in each case. In addition, the TGI in the assay on OVCAR-4 ovarian, with ACHN renal, with A498 renal, in the assay on LOX IMVI melanoma, with NCI-H460 lung and in the assay on SNB-75 CNS was above 100 µM throughout. Further, the TGI in the assay on HCT-15 colon, with OVCAR-3 ovarian, in the assay on HOP-62 NSCLC, with NCI-H226 lung, in the assay on MDA-N and in the assay with RPMI-8226 leukemia was above 100 µM in each case.
`Cc1ccc(N2C(=O)C3c4[nH]c5ccc(C)cc5c4C4CCC(C(C)(C)C)CC4C3C2=O)cc1` (configuration not stated): the TGI in the assay on SF-268 CNS came to 33.2 µM; in the assay with BT-549 breast, 75.9 µM; in the assay with NCI-H23 lung it was 39.7 µM; with 786-0 renal, 17.1 µM; in the assay on K-562 leukemia it was 16.1 µM; in the assay on A549 NSCLC, 32.8 µM. The TGI is 20.9 µM with OVCAR-4 ovarian; 55.6 µM in the assay with LOX IMVI melanoma; 20.4 µM in the assay with NCI-H460 lung; 26.7 µM in the assay with CCRF-CEM leukemia; above 100 µM with HCT-15 colon; 27.3 µM in the assay on OVCAR-3 ovarian. Moreover, the TGI in the assay on HOP-62 NSCLC is 24.5 µM; in the assay on NCI-H226 lung, 48.7 µM; in the assay on MDA-N it was 70.1 µM; with HL-60(TB) leukemia it was 82.8 µM; in the assay on RPMI-8226 leukemia, 46.3 µM.
Take `C=C(Cl)/C(=C\Cl)CCC(Cl)C(C)C` (configuration not stated) (tested in a mixture with another compound): the TGI in the assay on SF-268 CNS is 37.1 µM; with BT-549 breast it was 29.3 µM; in the assay on NCI-H23 lung, 28.2 µM; in the assay with 786-0 renal it was 29.5 µM; in the assay with K-562 leukemia, above 100 µM; in the assay with A549 NSCLC, above 100 µM. For the same compound, the TGI is 31.2 µM in the assay with OVCAR-4 ovarian; 30.4 µM in the assay on ACHN renal; 34.6 µM with A498 renal; 3.67 µM with LOX IMVI melanoma; 32.9 µM with NCI-H460 lung; above 100 µM with CCRF-CEM leukemia. Also, the TGI in the assay with SNB-75 CNS was 32.5 µM; with OVCAR-3 ovarian it was 30.1 µM; in the assay with HOP-62 NSCLC it was 32.6 µM; with NCI-H226 lung, 47.9 µM; in the assay on MDA-N, 30.4 µM; in the assay with HL-60(TB) leukemia it was above 100 µM.
